Drawing on ChEMBL document CHEMBL6153119, “Target Identification with Live-Cell Photoaffinity Labeling and Mechanism of Action Elucidation of ARN23765, a Highly Potent CFTR Corrector” (J Med Chem, 2025), this text covers Activity for five molecules.

Calls of active or inactive are those of the source. The calls are words filed in the database; no cut-off is given here.

Holding throughout (format): cell-based
Assay [1] concerns the target Cystic fibrosis transmembrane conductance regulator (Homo sapiens) (UniProt P13569). The assay is described as follows: Corrector activity at CFTR (unknown origin) transfected in HEK293 cells harboring CFTR fragment containing MSD1-NBD1-R assessed as increase in expression of CFTR level at 10 nM incubated for 24 hrs by Western blot analysis. (In general: A western blot detects proteins with antibodies after separation by electrophoresis.)

For assay [2] the target is unchanged. The assay is described as follows: Corrector activity at CFTR (unknown origin) transfected in HEK293 cells harboring CFTR fragment containing del-R assessed as increase in expression of CFTR level at 10 nM incubated for 24 hrs by Western blot analysis.
The subject of assay [3] is Cystic fibrosis transmembrane conductance regulator (Homo sapiens), P13569 [F508del/F81A]. Nature of the assay: Corrector activity at CFTR F508del/F81A mutant (unknown origin) transfected in HEK293 cells assessed as increase in protein maturation at 10 nM incubated for 24 hrs by Western blot analysis.
Assay [4] concerns Cystic fibrosis transmembrane conductance regulator (Homo sapiens), P13569 [F508del/R1070W]. Nature of the assay: Corrector activity at CFTR F508del/R1070W mutant (unknown origin) transfected in HEK293 cells assessed as increase in protein maturation at 10 nM incubated for 24 hrs by Western blot analysis.
Sequence of Cystic fibrosis transmembrane conductance regulator (Homo sapiens), P13569 [F508del/R1070W] (P13569 as listed by the source): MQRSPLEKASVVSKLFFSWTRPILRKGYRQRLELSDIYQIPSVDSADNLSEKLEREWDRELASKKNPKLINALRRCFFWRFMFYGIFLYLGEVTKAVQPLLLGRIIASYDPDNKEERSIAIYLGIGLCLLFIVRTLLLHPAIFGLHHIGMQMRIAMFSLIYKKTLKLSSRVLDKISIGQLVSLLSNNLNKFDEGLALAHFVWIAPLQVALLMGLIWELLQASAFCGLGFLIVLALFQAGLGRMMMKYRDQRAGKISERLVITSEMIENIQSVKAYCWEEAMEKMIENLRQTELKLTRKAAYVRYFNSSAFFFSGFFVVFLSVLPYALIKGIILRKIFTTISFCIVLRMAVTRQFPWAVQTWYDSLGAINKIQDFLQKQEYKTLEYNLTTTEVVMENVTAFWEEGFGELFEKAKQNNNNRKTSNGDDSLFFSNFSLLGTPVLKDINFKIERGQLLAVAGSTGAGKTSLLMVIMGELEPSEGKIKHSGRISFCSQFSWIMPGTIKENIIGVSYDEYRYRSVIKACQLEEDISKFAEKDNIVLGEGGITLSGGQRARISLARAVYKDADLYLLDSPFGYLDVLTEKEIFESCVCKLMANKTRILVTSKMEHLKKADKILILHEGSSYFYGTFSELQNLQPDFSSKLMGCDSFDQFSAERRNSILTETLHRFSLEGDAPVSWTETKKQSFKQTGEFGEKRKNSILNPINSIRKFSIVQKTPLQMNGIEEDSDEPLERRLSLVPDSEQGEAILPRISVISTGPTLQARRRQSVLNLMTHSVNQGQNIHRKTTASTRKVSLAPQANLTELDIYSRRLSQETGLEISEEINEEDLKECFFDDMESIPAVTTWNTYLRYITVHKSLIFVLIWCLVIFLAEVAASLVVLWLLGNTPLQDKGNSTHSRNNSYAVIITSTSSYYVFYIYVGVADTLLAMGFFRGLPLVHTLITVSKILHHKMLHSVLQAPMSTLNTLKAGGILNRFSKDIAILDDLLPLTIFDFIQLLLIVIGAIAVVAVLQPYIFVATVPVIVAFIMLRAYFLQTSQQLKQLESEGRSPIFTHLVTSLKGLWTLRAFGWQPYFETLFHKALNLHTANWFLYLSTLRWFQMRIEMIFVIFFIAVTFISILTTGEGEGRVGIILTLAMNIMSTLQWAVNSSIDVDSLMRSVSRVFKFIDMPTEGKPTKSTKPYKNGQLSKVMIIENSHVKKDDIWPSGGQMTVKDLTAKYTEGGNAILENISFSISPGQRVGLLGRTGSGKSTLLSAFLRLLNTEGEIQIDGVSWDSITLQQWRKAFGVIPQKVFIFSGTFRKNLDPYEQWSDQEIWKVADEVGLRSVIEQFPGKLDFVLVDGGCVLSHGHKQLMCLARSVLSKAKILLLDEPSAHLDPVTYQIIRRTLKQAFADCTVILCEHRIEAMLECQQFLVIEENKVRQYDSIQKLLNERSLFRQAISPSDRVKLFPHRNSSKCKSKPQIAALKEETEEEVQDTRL
The target of assay [5] is Cystic fibrosis transmembrane conductance regulator (Homo sapiens) (UniProt P13569). Nature of the assay: Corrector activity at CFTR (unknown origin) transfected in HEK293 cells harboring CFTR fragment containing MSD1-NBD1 assessed as increase in expression of CFTR level at 10 nM incubated for 24 hrs by Western blot analysis.
Sequence of Cystic fibrosis transmembrane conductance regulator (Homo sapiens) (P13569 whole entry, looked up, the tested form may be a part): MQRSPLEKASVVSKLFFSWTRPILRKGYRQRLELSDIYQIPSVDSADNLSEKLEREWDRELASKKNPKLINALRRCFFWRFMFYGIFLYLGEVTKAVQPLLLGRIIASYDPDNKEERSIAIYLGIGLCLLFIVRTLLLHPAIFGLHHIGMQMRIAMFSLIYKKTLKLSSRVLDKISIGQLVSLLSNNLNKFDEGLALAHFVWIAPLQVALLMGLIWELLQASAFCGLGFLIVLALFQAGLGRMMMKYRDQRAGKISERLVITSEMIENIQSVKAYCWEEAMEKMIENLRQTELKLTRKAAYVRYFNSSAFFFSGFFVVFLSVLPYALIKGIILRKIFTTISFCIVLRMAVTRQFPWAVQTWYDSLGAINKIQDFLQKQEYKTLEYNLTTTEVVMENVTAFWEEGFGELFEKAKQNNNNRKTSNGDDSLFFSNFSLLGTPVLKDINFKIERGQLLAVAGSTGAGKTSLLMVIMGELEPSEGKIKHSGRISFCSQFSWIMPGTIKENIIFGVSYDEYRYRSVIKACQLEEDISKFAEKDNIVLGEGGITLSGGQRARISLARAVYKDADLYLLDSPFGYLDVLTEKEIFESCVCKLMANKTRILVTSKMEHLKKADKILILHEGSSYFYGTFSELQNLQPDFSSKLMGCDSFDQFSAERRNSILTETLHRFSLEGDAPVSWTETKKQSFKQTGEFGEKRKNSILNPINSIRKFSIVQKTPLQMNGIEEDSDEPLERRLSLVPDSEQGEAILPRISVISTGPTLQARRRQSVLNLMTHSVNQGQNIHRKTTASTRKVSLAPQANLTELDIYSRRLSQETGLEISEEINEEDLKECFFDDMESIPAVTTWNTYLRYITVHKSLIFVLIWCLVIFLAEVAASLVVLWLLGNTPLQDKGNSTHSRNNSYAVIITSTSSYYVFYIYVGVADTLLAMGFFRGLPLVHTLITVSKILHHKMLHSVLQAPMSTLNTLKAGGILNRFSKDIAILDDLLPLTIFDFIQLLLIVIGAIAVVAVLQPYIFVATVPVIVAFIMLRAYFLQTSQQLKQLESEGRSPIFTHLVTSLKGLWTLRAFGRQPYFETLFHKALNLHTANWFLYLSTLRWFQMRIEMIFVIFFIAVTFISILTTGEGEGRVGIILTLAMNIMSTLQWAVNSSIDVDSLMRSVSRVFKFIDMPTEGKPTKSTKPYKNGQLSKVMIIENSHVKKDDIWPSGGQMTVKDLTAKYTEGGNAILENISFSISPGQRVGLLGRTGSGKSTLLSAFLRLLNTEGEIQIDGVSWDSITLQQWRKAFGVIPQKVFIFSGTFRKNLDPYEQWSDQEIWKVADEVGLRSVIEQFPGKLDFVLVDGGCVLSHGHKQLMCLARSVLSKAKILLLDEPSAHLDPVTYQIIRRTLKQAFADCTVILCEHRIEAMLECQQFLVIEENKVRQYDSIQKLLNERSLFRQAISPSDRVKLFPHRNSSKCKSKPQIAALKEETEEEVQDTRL
Assay [6] concerns Cystic fibrosis transmembrane conductance regulator (Homo sapiens), P13569 [F508del/R74A]. Nature of the assay: Corrector activity at CFTR F508del/R74A mutant (unknown origin) transfected in HEK293 cells assessed as increase in protein maturation at 10 nM incubated for 24 hrs by Western blot analysis.
The test system of assay [7] is Cystic fibrosis transmembrane conductance regulator (Homo sapiens), P13569 [F508del/R1070W]. The assay is described as follows: Corrector activity at CFTR F508del/R1070W mutant (unknown origin) transfected in HEK293 cells assessed as increase in […] at 10 nM incubated for 24 hrs by Western blot analysis.
Assay [8] has as its target Cystic fibrosis transmembrane conductance regulator (Homo sapiens) (UniProt P13569). Nature of the assay: Corrector activity at CFTR (unknown origin) transfected in HEK293 cells harboring CFTR fragment containing MSD2-NBD2 assessed as increase in expression of CFTR level at 10 nM incubated for 24 hrs by Western blot analysis.
The subject of assay [9] is Cystic fibrosis transmembrane conductance regulator (Homo sapiens), P13569 [R170G]. The assay is described as follows: Corrector activity at CFTR R170G mutant (unknown origin) transfected in HEK293 cells assessed as increase in protein maturation at 10 nM incubated for 24 hrs by Western blot analysis.
Assay [10] concerns Cystic fibrosis transmembrane conductance regulator (Homo sapiens), P13569 [F508del/S364F]. Nature of the assay: Corrector activity at CFTR F508del/S364F mutant (unknown origin) transfected in HEK293 cells assessed as increase in protein maturation at 10 nM incubated for 24 hrs by Western blot analysis.
Assay [11] concerns the target Cystic fibrosis transmembrane conductance regulator (Homo sapiens) (UniProt P13569). The assay is described as follows: Corrector activity at CFTR (unknown origin) transfected in HEK293 cells harboring CFTR fragment containing MSD2 assessed as increase in expression of CFTR level at 10 nM incubated for 24 hrs by Western blot analysis.
Assay [12] shares this target. Nature of the assay: Corrector activity at CFTR (unknown origin) transfected in HEK293 cells harboring CFTR fragment containing MSD1 assessed as increase in half life of CFTR MSD1 at 10 nM incubated for 24 hrs by Western blot analysis.
Assay [13] shares this target. Nature of the assay: Corrector activity at CFTR (unknown origin) transfected in HEK293 cells harboring CFTR fragment containing MSD2 assessed as effect on CFTR MSD2 stability at 10 nM incubated for 24 hrs by Western blot analysis.
Assay [14] has the same target. Nature of the assay: Corrector activity at wild-type CFTR (unknown origin) expressed in human CFBE41o- cells assessed as restoration of CFTR level at 25 uM incubated for 30 mins by pull down assay.
The test system of assay [15] is Cystic fibrosis transmembrane conductance regulator (Homo sapiens), P13569 [F508del/N71I]. Nature of the assay: Corrector activity at CFTR F508del/N71I mutant (unknown origin) transfected in HEK293 cells assessed as increase in protein maturation at 10 nM incubated for 24 hrs by Western blot analysis.
Assay [16] deals with Cystic fibrosis transmembrane conductance regulator (Homo sapiens), P13569 [F508del]. Nature of the assay: Corrector activity at CFTR F508del mutant (unknown origin) expressed in human CFBE41o- cells assessed as restoration of CFTR level at 25 uM incubated for 30 mins by pull down assay.
Sequence of Cystic fibrosis transmembrane conductance regulator (Homo sapiens), P13569 [F508del] (P13569 as listed by the source): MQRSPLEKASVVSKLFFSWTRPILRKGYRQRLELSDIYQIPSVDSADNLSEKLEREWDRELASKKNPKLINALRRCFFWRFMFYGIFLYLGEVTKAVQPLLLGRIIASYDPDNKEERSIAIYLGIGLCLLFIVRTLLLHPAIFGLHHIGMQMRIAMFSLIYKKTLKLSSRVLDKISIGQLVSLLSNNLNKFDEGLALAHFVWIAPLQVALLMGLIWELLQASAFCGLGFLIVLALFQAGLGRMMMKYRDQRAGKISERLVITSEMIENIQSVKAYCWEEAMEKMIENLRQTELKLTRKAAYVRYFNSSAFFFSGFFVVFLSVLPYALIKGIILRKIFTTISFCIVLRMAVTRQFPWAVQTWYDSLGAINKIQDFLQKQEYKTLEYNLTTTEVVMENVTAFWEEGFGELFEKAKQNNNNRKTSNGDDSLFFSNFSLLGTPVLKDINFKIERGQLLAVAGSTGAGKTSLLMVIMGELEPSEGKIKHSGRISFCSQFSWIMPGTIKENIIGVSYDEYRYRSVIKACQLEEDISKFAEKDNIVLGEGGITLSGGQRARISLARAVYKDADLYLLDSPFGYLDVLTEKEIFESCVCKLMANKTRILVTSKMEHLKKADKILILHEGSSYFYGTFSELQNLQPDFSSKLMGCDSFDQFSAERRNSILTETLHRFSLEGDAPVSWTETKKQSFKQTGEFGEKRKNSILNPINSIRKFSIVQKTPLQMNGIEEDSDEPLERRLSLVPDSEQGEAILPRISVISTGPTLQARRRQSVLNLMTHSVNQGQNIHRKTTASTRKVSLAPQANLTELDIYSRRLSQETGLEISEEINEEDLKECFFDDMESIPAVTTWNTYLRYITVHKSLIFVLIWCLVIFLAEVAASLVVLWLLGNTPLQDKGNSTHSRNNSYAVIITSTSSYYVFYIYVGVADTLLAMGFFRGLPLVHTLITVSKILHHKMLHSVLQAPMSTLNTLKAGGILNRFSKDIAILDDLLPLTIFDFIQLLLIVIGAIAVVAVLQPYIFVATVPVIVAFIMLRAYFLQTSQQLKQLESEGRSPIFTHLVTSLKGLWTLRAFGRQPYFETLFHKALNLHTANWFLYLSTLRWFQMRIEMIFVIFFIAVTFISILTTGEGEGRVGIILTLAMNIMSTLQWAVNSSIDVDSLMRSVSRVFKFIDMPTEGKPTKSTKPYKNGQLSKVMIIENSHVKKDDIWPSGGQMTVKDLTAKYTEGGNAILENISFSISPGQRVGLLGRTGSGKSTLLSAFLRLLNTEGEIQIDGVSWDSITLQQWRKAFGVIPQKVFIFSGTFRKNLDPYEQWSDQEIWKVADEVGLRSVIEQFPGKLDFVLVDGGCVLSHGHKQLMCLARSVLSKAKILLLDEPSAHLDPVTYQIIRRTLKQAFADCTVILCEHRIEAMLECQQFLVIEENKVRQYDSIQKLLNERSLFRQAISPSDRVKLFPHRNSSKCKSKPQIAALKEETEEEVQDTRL
In assay [17] the test system is Cystic fibrosis transmembrane conductance regulator (Homo sapiens), P13569 [F508del/K68I]. Nature of the assay: Corrector activity at CFTR F508del/K68I mutant (unknown origin) transfected in HEK293 cells assessed as increase in protein maturation at 10 nM incubated for 24 hrs by Western blot analysis.
Assay [18] deals with Cystic fibrosis transmembrane conductance regulator (Homo sapiens) (UniProt P13569). The assay is described as follows: Corrector activity at CFTR (unknown origin) transfected in HEK293 cells harboring CFTR fragment containing MSD1 assessed as increase in expression of CFTR level at 10 nM incubated for 24 hrs by Western blot analysis.
The next assay deals with HEK293. Nature of the assay: Corrector activity at CFTR F508del/A198Y mutant (unknown origin) transfected in HEK293 cells assessed as increase in protein maturation at 10 nM incubated for 24 hrs by Western blot analysis. The settings on record: Homo sapiens.
Assay [19] has as its system Cystic fibrosis transmembrane conductance regulator (Homo sapiens), P13569 [R170G]. Nature of the assay: Corrector activity at CFTR R170G mutant (unknown origin) transfected in HEK293 cells assessed as increase in […] at 10 nM incubated for 24 hrs by Western blot analysis.
The subject of assay [20] is Cystic fibrosis transmembrane conductance regulator (Homo sapiens), P13569 [F508del/W361A]. The assay is described as follows: Corrector activity at CFTR F508del/W361A mutant (unknown origin) transfected in HEK293 cells assessed as increase in protein maturation at 10 nM incubated for 24 hrs by Western blot analysis.
For assay [21], the target named is Cystic fibrosis transmembrane conductance regulator (Homo sapiens) (UniProt P13569). Nature of the assay: Corrector activity at wild-type CFTR (unknown origin) expressed in human CFBE41o- cells assessed as restoration of CFTR level at 2.5 uM with UV light irradiation followed by CuAAC implementation by pull down assay.
In assay [22] the test system is Cystic fibrosis transmembrane conductance regulator (Homo sapiens), P13569 [F508del/R1070W]. Nature of the assay: Corrector activity at CFTR F508del/R1070W mutant (unknown origin) transfected in HEK293 cells assessed as increase in protein maturation at 3 uM incubated for 24 hrs by Western blot analysis.
The test system is the same in assay [23]. The assay is described as follows: Corrector activity at CFTR F508del/R1070W mutant (unknown origin) transfected in HEK293 cells assessed as increase in […] at 3 uM incubated for 24 hrs by Western blot analysis.
For assay [24], the target named is Cystic fibrosis transmembrane conductance regulator (Homo sapiens) (UniProt P13569). Nature of the assay: Corrector activity at CFTR in human CFBE41o- cells harboring CFTR-/- assessed as restoration of CFTR level at 1 uM preincubated with ARN23765 followed by compound addition measured after 2 hrs by pull down assay.
The subject of assay [25] is Cystic fibrosis transmembrane conductance regulator (Homo sapiens), P13569 [F508del]. The assay is described as follows: Corrector activity at mature CFTR F508del mutant (unknown origin) expressed in human CFBE41o- cells assessed as restoration of CFTR level at 27 degreeC at 1 uM preincubated with ARN23765 followed by compound addition measured after 2 hrs by pull down assay.

Assay [26] shares this test system. The assay is described as follows: Corrector activity at immature CFTR F508del mutant (unknown origin) expressed in human CFBE41o- cells assessed as restoration of CFTR level at 27 degreeC at 1 uM preincubated with ARN23765 followed by compound addition measured after 2 hrs by pull down assay.
Assay [27] shares this test system. The assay is described as follows: Corrector activity at CFTR F508del mutant (unknown origin) expressed in human CFBE41o- cells assessed as restoration of CFTR level at 1 uM preincubated with ARN23765 followed by compound addition measured after 2 hrs by pull down assay.
Assay [28] shares this test system. Nature of the assay: Corrector activity at CFTR F508del mutant (unknown origin) expressed in human CFBE41o- cells co-expressing HS-YFP assessed as maximum restoration of channel function incubated for 24 hrs by florescence based analysis (reference value: 3.0).
For assay [29], the target named is Cystic fibrosis transmembrane conductance regulator (Homo sapiens) (UniProt P13569). The assay is described as follows: Corrector activity at wild-type CFTR (unknown origin) expressed in human CFBE41o- cells assessed as restoration of CFTR level at 1 uM preincubated with ARN23765 followed by compound addition measured after 2 hrs by pull down assay.

Take `CN(C(=O)c1cccc(-n2nc(C(F)(F)F)c3c2[C@@H](Oc2ccc(C(=O)O)cc2)CCC3)c1)c1ccc2c(c1)OC(F)(F)O2`: the outcome in [1], in [2], in assay [4], in assay [5], in assay [7] and in assay [9] was Active. Further, the outcome in assay [12], in [15], in assay [17], in [18] and in [19] was Active. For the same molecule, the Activity entry in [3] is “Not active; Protein Maturation Markedly Reduced Or Abolished”; in assay [6], “Not active; Slightly Reduced Protein Maturation”; in [10] it was “Not active; Slightly Reduced Protein Maturation”; in the assay with HEK293 it was “Not active; Protein Maturation Markedly Reduced Or Abolished”; in assay [20] it was “Not active; Protein Maturation Markedly Reduced Or Abolished”. Further, the result in assay [8], in [11], in [13], in [14] and in assay [16] was inactive.

On to `C#Cc1ccc(O[C@H]2CCCc3c(C(F)(F)F)nn(-c4cccc(C(=O)N(C)c5ccc(C6(C(F)(F)F)N=N6)cc5)c4)c32)cc1`, for which the outcome in assay [21] was inactive.

Consider `CC(C)(CO)c1cc2cc(NC(=O)C3(c4ccc5c(c4)OC(F)(F)O5)CC3)c(F)cc2n1C[C@@H](O)CO`, for which the outcome in [22] and in [23] was Active.

On to `C[C@H]1NC(=O)N[C@H]1CCCCCC(=O)NCCOCCOCCOCCn1cc(CCC2(CCNC(=O)c3ccc(O[C@H]4CCCc5c(C(F)(F)F)nn(-c6cccc(C(=O)N(C)c7ccc8c(c7)OC(F)(F)O8)c6)c54)cc3)N=N2)nn1`, for which the outcome in assay [24], in [27] and in assay [29] was inactive. Besides, the result in assay [25] and in assay [26] was Active. Further, the Activity in assay [28] is 2.8.

As for `C[C@H]1NC(=O)N[C@H]1CCCCCC(=O)NCCOCCOCCOCCn1cc(-c2ccc(O[C@H]3CCCc4c(C(F)(F)F)nn(-c5cccc(C(=O)N(C)c6ccc(C7(C(F)(F)F)N=N7)cc6)c5)c43)cc2)nn1`, the outcome in assay [24], in assay [27] and in [29] was inactive. Also, the result in [25] and in assay [26] was Active.
